Test results: the supplement of paper PMC10307832

Columns and labels:
Test in all cases: relative viability (nuclei count vs DMSO), 5 days (fraction); higher = more cells survive
NCI-H1395 = system: NCI-H1395
Method in brief: (§1)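 Medians of duplicate plates are given as relative viability. That measure is the nuclei count in treated wells divided by the count in vehicle wells. Counts were taken on 4× images of lung cancer cell lines in 1536-well plates, 5 days after pin-tool dosing the day after seeding with one drug alone or a fixed anchor-drug dose plus five library-drug doses (not always all listed) in √10 steps.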

NCI-H3122 = system: NCI-H3122
Method in brief: as §1

LOU-NH91 = system: LOU-NH91
Method in brief: as §1

NCI-H2009 = system: NCI-H2009
Method in brief: as §1

NCI-H1993 = system: NCI-H1993
Method in brief: as §1

NCI-H2087 = system: NCI-H2087
Method in brief: as §1

NCI-H596 = system: NCI-H596
Method in brief: as §1

NCI-H23 = system: NCI-H23
Method in brief: as §1

NCI-H838 = system: NCI-H838
Method in brief: as §1

HCC-44 = system: HCC-44
Method in brief: as §1

NCI-H727 = system: NCI-H727
Method in brief: as §1

NCI-H647 = system: NCI-H647
Method in brief: as §1

201T = system: 201T
Method in brief: as §1

NCI-H2347 = system: NCI-H2347
Method in brief: as §1

NCI-H522 = system: NCI-H522
Method in brief: as §1

HARA = system: HARA
Method in brief: as §1

BEN = system: BEN
Method in brief: as §1

EMC-BAC-2 = system: EMC-BAC-2
Method in brief: as §1

NCI-H441 = system: NCI-H441
Method in brief: as §1

NCI-H2023 = system: NCI-H2023
Method in brief: as §1

LCLC-103H = system: LCLC-103H
Method in brief: as §1

NCI-H650 = system: NCI-H650
Method in brief: as §1

NCI-H1666 = system: NCI-H1666
Method in brief: as §1

NCI-H2126 = system: NCI-H2126
Method in brief: as §1

In the case of `Clc1ccc(Nc2nnc(Cc3ccncc3)c3ccccc23)cc1` [Vatalanib] + N=C(N)NC(=N)NCCc1ccccc1 [Phenformin] (partner 250 µM), the relative viability (NCI-H1395; first compound 0.04 µM) is reported as 0.441, the relative viability (NCI-H1395; first compound 0.1265 µM) is reported as 0.419 and the relative viability (NCI-H1395; first compound 0.4 µM) is reported as 0.437. For the same compound, the relative viability (NCI-H1395; first compound 1.265 µM) was 0.399, the relative viability (NCI-H1395; first compound 4 µM) was 0.449 and the relative viability (NCI-H3122; first compound 0.04 µM) was 0.401. For the same compound, the relative viability (NCI-H3122; first compound 0.1265 µM) was 0.365, the relative viability (NCI-H3122; first compound 1.265 µM) was 0.316 and the relative viability (NCI-H3122; first compound 4 µM) was 0.323. It also gave a relative viability (LOU-NH91; first compound 0.04 µM) of 0.694, a relative viability (LOU-NH91; first compound 0.1265 µM) of 0.679 and a relative viability (LOU-NH91; first compound 1.265 µM) of 0.697. It also gave a relative viability (LOU-NH91; first compound 4 µM) of 0.668, a relative viability (NCI-H2009; first compound 0.04 µM) of 0.578 and a relative viability (NCI-H2009; first compound 0.1265 µM) of 0.439. The relative viability (NCI-H2009; first compound 0.4 µM) was 0.464, the relative viability (NCI-H2009; first compound 1.265 µM) was 0.406 and the relative viability (NCI-H2009; first compound 4 µM) was 0.391. It also gave a relative viability (NCI-H1993; first compound 0.04 µM) of 0.492, a relative viability (NCI-H1993; first compound 0.1265 µM) of 0.533 and a relative viability (NCI-H1993; first compound 0.4 µM) of 0.601. For the same compound, the relative viability (NCI-H1993; first compound 1.265 µM) was 0.482, the relative viability (NCI-H1993; first compound 4 µM) was 0.534 and the relative viability (NCI-H2087; first compound 0.04 µM) was 0.484. The relative viability (NCI-H2087; first compound 0.1265 µM) was 0.404, the relative viability (NCI-H2087; first compound 0.4 µM) was 0.428 and the relative viability (NCI-H2087; first compound 1.265 µM) was 0.461. The relative viability (NCI-H2087; first compound 4 µM) was 0.541, the relative viability (NCI-H596; first compound 0.04 µM) was 0.715 and the relative viability (NCI-H596; first compound 0.1265 µM) was 0.874. It also gave a relative viability (NCI-H596; first compound 0.4 µM) of 0.769, a relative viability (NCI-H596; first compound 1.265 µM) of 0.767 and a relative viability (NCI-H596; first compound 4 µM) of 0.662. It also gave a relative viability (NCI-H23; first compound 0.04 µM) of 0.742, a relative viability (NCI-H23; first compound 0.1265 µM) of 0.719 and a relative viability (NCI-H23; first compound 0.4 µM) of 0.78. It also gave a relative viability (NCI-H23; first compound 1.265 µM) of 0.714, a relative viability (NCI-H23; first compound 4 µM) of 0.748 and a relative viability (NCI-H838; first compound 0.04 µM) of 0.607. The relative viability (NCI-H838; first compound 0.1265 µM) was 0.476, the relative viability (NCI-H838; first compound 0.4 µM) was 0.69 and the relative viability (NCI-H838; first compound 1.265 µM) was 0.563. The relative viability (NCI-H838; first compound 4 µM) was 0.548, the relative viability (HCC-44; first compound 0.04 µM) was 0.178 and the relative viability (HCC-44; first compound 0.1265 µM) was 0.257. The relative viability (HCC-44; first compound 0.4 µM) was 0.0876, the relative viability (HCC-44; first compound 1.265 µM) was 0.182 and the relative viability (HCC-44; first compound 4 µM) was 0.147. For the same compound, the relative viability (NCI-H727; first compound 0.04 µM) was 0.531, the relative viability (NCI-H727; first compound 0.1265 µM) was 0.572 and the relative viability (NCI-H727; first compound 0.4 µM) was 0.519. For the same compound, the relative viability (NCI-H727; first compound 1.265 µM) was 0.558, the relative viability (NCI-H727; first compound 4 µM) was 0.466 and the relative viability (NCI-H647; first compound 0.04 µM) was 0.466. It also gave a relative viability (NCI-H647; first compound 0.1265 µM) of 0.562, a relative viability (NCI-H647; first compound 0.4 µM) of 0.521 and a relative viability (NCI-H647; first compound 1.265 µM) of 0.401. For the same compound, the relative viability (NCI-H647; first compound 4 µM) was 0.54, the relative viability (201T; first compound 0.04 µM) was 0.436 and the relative viability (201T; first compound 0.1265 µM) was 0.451. The relative viability (201T; first compound 0.4 µM) was 0.437, the relative viability (201T; first compound 1.265 µM) was 0.405 and the relative viability (201T; first compound 4 µM) was 0.431. The relative viability (NCI-H2347; first compound 0.04 µM) was 0.323, the relative viability (NCI-H2347; first compound 0.1265 µM) was 0.426 and the relative viability (NCI-H2347; first compound 0.4 µM) was 0.401. It also gave a relative viability (NCI-H2347; first compound 1.265 µM) of 0.266, a relative viability (NCI-H2347; first compound 4 µM) of 0.389 and a relative viability (NCI-H522; first compound 0.04 µM) of 0.699. The relative viability (NCI-H522; first compound 0.1265 µM) was 0.531, the relative viability (NCI-H522; first compound 0.4 µM) was 0.673 and the relative viability (NCI-H522; first compound 1.265 µM) was 0.623. It also gave a relative viability (NCI-H522; first compound 4 µM) of 0.597, a relative viability (HARA; first compound 0.04 µM) of 0.452 and a relative viability (HARA; first compound 0.1265 µM) of 0.397. The relative viability (HARA; first compound 0.4 µM) was 0.497, the relative viability (HARA; first compound 1.265 µM) was 0.42 and the relative viability (HARA; first compound 4 µM) was 0.354. It also gave a relative viability (BEN; first compound 0.04 µM) of 0.29, a relative viability (BEN; first compound 0.1265 µM) of 0.233 and a relative viability (BEN; first compound 0.4 µM) of 0.274. The relative viability (BEN; first compound 1.265 µM) was 0.231, the relative viability (BEN; first compound 4 µM) was 0.306 and the relative viability (EMC-BAC-2; first compound 0.04 µM) was 0.511. For the same compound, the relative viability (EMC-BAC-2; first compound 0.1265 µM) was 0.538, the relative viability (EMC-BAC-2; first compound 0.4 µM) was 0.542 and the relative viability (EMC-BAC-2; first compound 1.265 µM) was 0.497. It also gave a relative viability (EMC-BAC-2; first compound 4 µM) of 0.512, a relative viability (NCI-H441; first compound 0.04 µM) of 0.904 and a relative viability (NCI-H441; first compound 0.1265 µM) of 0.761. It also gave a relative viability (NCI-H441; first compound 0.4 µM) of 0.849, a relative viability (NCI-H441; first compound 1.265 µM) of 0.729 and a relative viability (NCI-H441; first compound 4 µM) of 0.819. The relative viability (NCI-H2023; first compound 0.04 µM) was 0.447, the relative viability (NCI-H2023; first compound 0.1265 µM) was 0.397 and the relative viability (NCI-H2023; first compound 0.4 µM) was 0.477. It also gave a relative viability (NCI-H2023; first compound 1.265 µM) of 0.376, a relative viability (NCI-H2023; first compound 4 µM) of 0.341 and a relative viability (LCLC-103H; first compound 0.04 µM) of 0.339. For the same compound, the relative viability (LCLC-103H; first compound 0.1265 µM) was 0.306, the relative viability (LCLC-103H; first compound 0.4 µM) was 0.373 and the relative viability (LCLC-103H; first compound 1.265 µM) was 0.363. It also gave a relative viability (LCLC-103H; first compound 4 µM) of 0.316, a relative viability (NCI-H650; first compound 0.04 µM) of 0.473 and a relative viability (NCI-H650; first compound 0.1265 µM) of 0.427. For the same compound, the relative viability (NCI-H650; first compound 1.265 µM) was 0.446, the relative viability (NCI-H650; first compound 4 µM) was 0.439 and the relative viability (NCI-H1666; first compound 0.04 µM) was 0.563. The relative viability (NCI-H1666; first compound 0.1265 µM) was 0.566, the relative viability (NCI-H1666; first compound 0.4 µM) was 0.449 and the relative viability (NCI-H1666; first compound 1.265 µM) was 0.519. For the same compound, the relative viability (NCI-H1666; first compound 4 µM) was 0.559, the relative viability (NCI-H2126; first compound 0.04 µM) was 0.508 and the relative viability (NCI-H2126; first compound 0.1265 µM) was 0.521. The relative viability (NCI-H2126; first compound 0.4 µM) was 0.453, the relative viability (NCI-H2126; first compound 1.265 µM) was 0.487 and the relative viability (NCI-H2126; first compound 4 µM) was 0.546.
